Test results published in the NIST ThermoML archive (doi:10.1021/acs.jced.6b00178).

Columns and labels:
[1] = xn = mol fraction of the nth substance listed; details: 100 kPa, Liquid; for viscosity: Concentric cylinders viscometry; for mass density: Vibrating tube method

CCCC[n+]1ccn(C)c1.O=S(=O)([N-]S(=O)(=O)C(F)(F)F)C(F)(F)F + CCCCn1cc[n+](C)c1.N#C[S-]
[1], x1 = 1
Details	mass density [kg/m3]	viscosity [mPa·s]
283.15 K	1451.8	106.78
288.15 K	1446.9	82.14
293.15 K	1442.1	66.36
298.15 K	1437.2	51.58
303.15 K	1432.4	41.94
308.15 K	1427.6	34.6
313.15 K	1422.9	29.48
318.15 K	1418.2	24.47
323.15 K	1413.5	20.93
328.15 K	1408.8	18.07
333.15 K	1404.1	15.95
338.15 K	1399.4	13.83
343.15 K	1394.8	12.23
348.15 K	1390.2	10.9
353.15 K	1385.6	9.985
358.15 K	1381.1	8.806
363.15 K	1376.6	7.98

CCCC[n+]1ccn(C)c1.O=S(=O)([N-]S(=O)(=O)C(F)(F)F)C(F)(F)F + CC(=O)[O-].CCCCn1cc[n+](C)c1
[1], x1 = 1
Details	mass density [kg/m3]	viscosity [mPa·s]
283.15 K	1451.8	106.78
288.15 K	1446.9	82.14
293.15 K	1442.1	66.36
298.15 K	1437.2	51.58
303.15 K	1432.4	41.94
308.15 K	1427.6	34.6
313.15 K	1422.9	29.48
318.15 K	1418.2	24.47
323.15 K	1413.5	20.93
328.15 K	1408.8	18.07
333.15 K	1404.1	15.95
338.15 K	1399.4	13.83
343.15 K	1394.8	12.23
348.15 K	1390.2	10.9
353.15 K	1385.6	9.985
358.15 K	1381.1	8.806
363.15 K	1376.6	7.98

CC(=O)[O-].CCCCn1cc[n+](C)c1 [1-butyl-3-methylimidazolium acetate]
100 kPa, Liquid
Details	mass density, Vibrating tube method [kg/m3]	viscosity, Concentric cylinders viscometry [mPa·s]
283.15 K	1062.7	1013.4
288.15 K	1059.4	645.6
293.15 K	1056	421.35
298.15 K	1052.8	292.57
303.15 K	1049.7	206.68
308.15 K	1046.6	150.08
313.15 K	1043.5	110.79
318.15 K	1040.5	85.03
323.15 K	1037.5	66.07
328.15 K	1034.5	52.29
333.15 K	1031.5	42.29
338.15 K	1028.5	34.38
343.15 K	1025.6	28.48
348.15 K	1022.6	23.88
353.15 K	1019.7	20.63
358.15 K	1016.7	17.35
363.15 K	1013.9	15

CCCCn1cc[n+](C)c1.O=S(=O)([O-])C(F)(F)F [1-butyl-3-methylimidazolium trifluoromethanesulfonate]
100 kPa
Details	mass density [kg/m3]	viscosity [mPa·s]
283.15 K, Metastable liquid, Concentric cylinders viscometry	–	225.61
283.15 K, Metastable liquid, Vibrating tube method	1308.4	–
288.15 K, Metastable liquid, Concentric cylinders viscometry	–	168.05
288.15 K, Metastable liquid, Vibrating tube method	1304.3	–
293.15 K, Concentric cylinders viscometry, Liquid	–	128.51
293.15 K, Vibrating tube method, Liquid	1300.3	–
298.15 K, Concentric cylinders viscometry, Liquid	–	99.14
298.15 K, Vibrating tube method, Liquid	1296.3	–
303.15 K, Concentric cylinders viscometry, Liquid	–	78.26
303.15 K, Vibrating tube method, Liquid	1292.3	–
308.15 K, Concentric cylinders viscometry, Liquid	–	62.76
308.15 K, Vibrating tube method, Liquid	1288.4	–
313.15 K, Concentric cylinders viscometry, Liquid	–	51.33
313.15 K, Vibrating tube method, Liquid	1284.5	–
318.15 K, Concentric cylinders viscometry, Liquid	–	42.1
318.15 K, Vibrating tube method, Liquid	1280.6	–
323.15 K, Concentric cylinders viscometry, Liquid	–	35.13
323.15 K, Vibrating tube method, Liquid	1276.7	–
328.15 K, Concentric cylinders viscometry, Liquid	–	29.63
328.15 K, Vibrating tube method, Liquid	1272.8	–
333.15 K, Concentric cylinders viscometry, Liquid	–	25.5
333.15 K, Vibrating tube method, Liquid	1268.9	–
338.15 K, Concentric cylinders viscometry, Liquid	–	21.72
338.15 K, Vibrating tube method, Liquid	1265.1	–
343.15 K, Concentric cylinders viscometry, Liquid	–	18.84
343.15 K, Vibrating tube method, Liquid	1261.3	–
348.15 K, Concentric cylinders viscometry, Liquid	–	16.47
348.15 K, Vibrating tube method, Liquid	1257.5	–
353.15 K, Concentric cylinders viscometry, Liquid	–	14.83
353.15 K, Vibrating tube method, Liquid	1253.7	–
358.15 K, Concentric cylinders viscometry, Liquid	–	12.86
358.15 K, Vibrating tube method, Liquid	1249.9	–
363.15 K, Concentric cylinders viscometry, Liquid	–	11.48
363.15 K, Vibrating tube method, Liquid	1246.2	–

CCCC[n+]1ccn(C)c1.O=S(=O)([N-]S(=O)(=O)C(F)(F)F)C(F)(F)F + CCCCn1cc[n+](C)c1.COP(=O)([O-])OC
[1], x1 = 1
Details	mass density [kg/m3]	viscosity [mPa·s]
283.15 K	1451.8	106.78
288.15 K	1446.9	82.14
293.15 K	1442.1	66.36
298.15 K	1437.2	51.58
303.15 K	1432.4	41.94
308.15 K	1427.6	34.6
313.15 K	1422.9	29.48
318.15 K	1418.2	24.47
323.15 K	1413.5	20.93
328.15 K	1408.8	18.07
333.15 K	1404.1	15.95
338.15 K	1399.4	13.83
343.15 K	1394.8	12.23
348.15 K	1390.2	10.9
353.15 K	1385.6	9.985
358.15 K	1381.1	8.806
363.15 K	1376.6	7.98

CCCCn1cc[n+](C)c1.N#CN=C=[N-] [1-butyl-3-methylimidazolium dicyanamide]
100 kPa, Liquid
Details	mass density, Vibrating tube method [kg/m3]	viscosity, Concentric cylinders viscometry [mPa·s]
283.15 K	1070	58.35
288.15 K	1066.7	45.91
293.15 K	1063.4	36.83
298.15 K	1060.2	30.08
303.15 K	1057	24.94
308.15 K	1053.8	20.98
313.15 K	1050.6	17.86
318.15 K	1047.5	15.38
323.15 K	1044.4	13.38
328.15 K	1041.3	11.74
333.15 K	1038.2	10.38
338.15 K	1035.2	9.251
343.15 K	1032.1	8.298
348.15 K	1029.1	7.488
353.15 K	1026.1	6.794
358.15 K	1023.2	6.196
363.15 K	1020.3	5.677

CCCCn1cc[n+](C)c1.F[B-](F)(F)F [1-butyl-3-methylimidazolium tetrafluoroborate]
100 kPa, Liquid
Details	mass density, Vibrating tube method [kg/m3]	viscosity, Concentric cylinders viscometry [mPa·s]
283.15 K	1212.5	264.99
288.15 K	1208.8	192.43
293.15 K	1205.2	143.08
298.15 K	1201.6	108.74
303.15 K	1198	84.28
308.15 K	1194.5	66.52
313.15 K	1190.9	53.37
318.15 K	1187.4	43.47
323.15 K	1184	35.89
328.15 K	1180.5	30.01
333.15 K	1177	25.38
338.15 K	1173.6	21.68
343.15 K	1170.2	18.7
348.15 K	1166.8	16.26
353.15 K	1163.4	14.26
358.15 K	1160.1	12.59
363.15 K	1156.8	11.2

CCCC[n+]1ccn(C)c1.O=S(=O)([N-]S(=O)(=O)C(F)(F)F)C(F)(F)F + CCCCn1cc[n+](C)c1.O=S(=O)([O-])C(F)(F)F
[1], x1 = 1
Details	mass density [kg/m3]	viscosity [mPa·s]
283.15 K	1451.8	106.78
288.15 K	1446.9	82.14
293.15 K	1442.1	66.36
298.15 K	1437.2	51.58
303.15 K	1432.4	41.94
308.15 K	1427.6	34.6
313.15 K	1422.9	29.48
318.15 K	1418.2	24.47
323.15 K	1413.5	20.93
328.15 K	1408.8	18.07
333.15 K	1404.1	15.95
338.15 K	1399.4	13.83
343.15 K	1394.8	12.23
348.15 K	1390.2	10.9
353.15 K	1385.6	9.985
358.15 K	1381.1	8.806
363.15 K	1376.6	7.98

CCCC[n+]1ccn(C)c1.O=S(=O)([N-]S(=O)(=O)C(F)(F)F)C(F)(F)F + CCCCn1cc[n+](C)c1.F[P-](F)(F)(F)(F)F
[1], x1 = 1
Details	mass density [kg/m3]	viscosity [mPa·s]
283.15 K	1451.8	106.77
288.15 K	1446.9	82.16
293.15 K	1442.1	64.53
298.15 K	1437.2	51.6
303.15 K	1432.4	41.93
308.15 K	1427.6	34.59
313.15 K	1422.8	28.91
318.15 K	1418.1	24.46
323.15 K	1413.4	20.91
328.15 K	1408.7	18.05
333.15 K	1404	15.72
338.15 K	1399.3	13.8
343.15 K	1394.7	12.2
348.15 K	1390.1	10.86
353.15 K	1385.5	9.72
358.15 K	1381	8.754
363.15 K	1376.4	7.926

CCCC[n+]1ccn(C)c1.O=S(=O)([N-]S(=O)(=O)C(F)(F)F)C(F)(F)F + CCCCn1cc[n+](C)c1.N#CN=C=[N-]
[1], x1 = 1
Details	mass density [kg/m3]	viscosity [mPa·s]
283.15 K	1451.8	106.77
288.15 K	1446.9	82.16
293.15 K	1442.1	64.53
298.15 K	1437.2	51.6
303.15 K	1432.4	41.93
308.15 K	1427.6	34.59
313.15 K	1422.8	28.91
318.15 K	1418.1	24.46
323.15 K	1413.4	20.91
328.15 K	1408.7	18.05
333.15 K	1404	15.72
338.15 K	1399.3	13.8
343.15 K	1394.7	12.2
348.15 K	1390.1	10.86
353.15 K	1385.5	9.72
358.15 K	1381	8.754
363.15 K	1376.4	7.926

CCCCn1cc[n+](C)c1.N#C[S-] [1-butyl-3-methylimidazolium thiocyanate]
100 kPa, Liquid
Details	mass density, Vibrating tube method [kg/m3]	viscosity, Concentric cylinders viscometry [mPa·s]
283.15 K	1079.2	139.54
288.15 K	1076.2	104.51
293.15 K	1073.2	82.91
298.15 K	1070.2	62.63
303.15 K	1067.2	49.94
308.15 K	1064.2	40.48
313.15 K	1061.3	34.08
318.15 K	1058.4	27.8
323.15 K	1055.5	23.49
328.15 K	1052.6	20.06
333.15 K	1049.8	17.58
338.15 K	1047	15.08
343.15 K	1044.1	13.24
348.15 K	1041.4	11.71
353.15 K	1038.6	10.67
358.15 K	1035.8	9.355
363.15 K	1033.1	8.436

CCCCn1cc[n+](C)c1.F[B-](F)(F)F [1-butyl-3-methylimidazolium tetrafluoroborate] + CCCC[n+]1ccn(C)c1.O=S(=O)([N-]S(=O)(=O)C(F)(F)F)C(F)(F)F
[1], x2 = 0
Details	mass density [kg/m3]	viscosity [mPa·s]
283.15 K	1212.5	264.99
288.15 K	1208.8	192.43
293.15 K	1205.2	143.08
298.15 K	1201.6	108.74
303.15 K	1198	84.28
308.15 K	1194.5	66.52
313.15 K	1190.9	53.37
318.15 K	1187.4	43.47
323.15 K	1184	35.89
328.15 K	1180.5	30.01
333.15 K	1177	25.38
338.15 K	1173.6	21.68
343.15 K	1170.2	18.7
348.15 K	1166.8	16.26
353.15 K	1163.4	14.26
358.15 K	1160.1	12.59
363.15 K	1156.8	11.2
